Counter-ions that a name gives are not always drawn.

Experiment [1] deals with patients with urinary disturbance associated with benign prostatic hyperplasia. The experiment is described as follows: Placebo-control parallel groups-comparing double blind clinical trial, I-PSS changes from pre-administration. It is filed as in vivo, human. The note with it: for I-PSS (irritative symptom) Changes / I-PSS (obstructive symptom) Changes / Total I-PSS Changes: oral, 12 weeks. From the text: Using patients with urinary disturbance associated with benign prostatic hyperplasia as the subjects, the clinical effects of silodosin and tamsulosin hydrochloride were examined by a placebo-control parallel groups-comparing double blind trial, using changes in the total I-PSS (International Prostate Symptom Score) from pre-administration as the primary endpoint. The I-PSS consists of 3 items of irritative symptoms representing the symptoms at the time of storing (Nocturia, Urgency and Urination within 2 hours) and 4 items of obstructive symptoms representing the symptoms at the time of voiding (Sensation of residual urine, Intermittency of urinary stream, Power of urinary stream and Straining during urination), prepared for use in the judgment of various therapeutic effects on the dysuria associated with benign prostatic hyperplasia, but this is not specific to prostatic hyperplasia and can also be used for the judgment of therapeutic effects on female dysuria and the like (Non-patent Reference 1).
Effects of silodosin (4 mg per once, twice a day) and tamsulosin hydrochloride (0.2 mg per once, once a day) on the storage disorder were examined by the following method.
Patients to be tested: 455 patients with dysuria associated with benign prostatic hyperplasia
Administration method: oral administration for 12 weeks
Primary endpoints: total score of I-PSS, I-PSS irritative symptom score and I-PSS obstructive symptom score
Analysis method: all of the finally evaluated cases were stratified into groups of patients having a total score of less than 6 and that of 6 or more regarding the “Urination within 2 hours” and “Urgency” of I-PSS, and average values of respective changes in the total score of I-PSS, I-PSS irritative symptom score and I-PSS obstructive symptom score before and after the administration were calculated for each group.
Administration groups: silodosin group (116 cases having a pre-administration score of less than 6, and 58 cases having that of 6 or more), tamsulosin group (135 cases having a pre-administration score of less than 6, and 57 cases having that of 6 or more), a placebo group (61 cases having a pre-administration score of less than 6, and 28 cases having that of 6 or more)
Not at all: 0 point; Less than 1 time in 5: 1 point; Less than 1 time in 2: 2 points; About 1 time in 2: 3 points; More than 1 time in 2: 4 points; Almost always: 5 points.
None: 0 point; 1 time: 1 point; 2 times: 2 points; 3 times: 3 points; 4 times: 4 points; 5 times or more: 5 points.

The next experiment concerns the target T1, α1A-AR subtype (Homo sapiens, UniProt P35348).
T1 sequence (P35348 1-466): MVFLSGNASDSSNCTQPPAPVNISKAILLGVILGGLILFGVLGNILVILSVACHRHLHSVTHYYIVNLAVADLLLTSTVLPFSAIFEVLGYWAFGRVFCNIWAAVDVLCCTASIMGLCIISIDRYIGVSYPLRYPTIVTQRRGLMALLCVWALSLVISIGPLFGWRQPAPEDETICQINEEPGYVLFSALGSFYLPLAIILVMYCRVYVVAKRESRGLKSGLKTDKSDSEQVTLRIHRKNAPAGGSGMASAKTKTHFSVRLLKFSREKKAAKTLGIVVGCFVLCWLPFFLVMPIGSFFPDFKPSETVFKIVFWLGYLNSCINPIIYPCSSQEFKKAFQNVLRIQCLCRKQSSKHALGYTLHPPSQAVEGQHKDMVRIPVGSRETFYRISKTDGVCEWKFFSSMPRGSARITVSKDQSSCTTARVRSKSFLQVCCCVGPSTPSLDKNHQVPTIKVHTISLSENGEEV
The note with it: Patent Reference 3 and Non-patent Reference 5; cited from earlier work.

For another experiment, the target named is T2, α1B-AR subtype (Homo sapiens, UniProt P35368).
T2 sequence (P35368 1-520): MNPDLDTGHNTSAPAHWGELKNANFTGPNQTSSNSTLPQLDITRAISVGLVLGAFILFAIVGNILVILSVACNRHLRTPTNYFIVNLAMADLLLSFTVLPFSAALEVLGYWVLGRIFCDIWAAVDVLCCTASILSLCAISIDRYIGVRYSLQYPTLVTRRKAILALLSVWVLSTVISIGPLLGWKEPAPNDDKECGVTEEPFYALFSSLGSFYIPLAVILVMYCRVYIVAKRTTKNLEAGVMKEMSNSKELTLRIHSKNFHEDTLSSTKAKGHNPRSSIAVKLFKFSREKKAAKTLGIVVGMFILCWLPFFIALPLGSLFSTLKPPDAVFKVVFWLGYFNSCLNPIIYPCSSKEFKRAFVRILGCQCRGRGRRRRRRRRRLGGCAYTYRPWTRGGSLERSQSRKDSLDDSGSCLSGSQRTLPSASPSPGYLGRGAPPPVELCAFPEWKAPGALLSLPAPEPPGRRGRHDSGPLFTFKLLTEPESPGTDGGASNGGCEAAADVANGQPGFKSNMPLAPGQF
The note with it: Patent Reference 3 and Non-patent Reference 5; cited from earlier work.

The target in a further experiment is T3, α1D-AR subtype (Homo sapiens, UniProt P25100).
T3 sequence (P25100 1-572): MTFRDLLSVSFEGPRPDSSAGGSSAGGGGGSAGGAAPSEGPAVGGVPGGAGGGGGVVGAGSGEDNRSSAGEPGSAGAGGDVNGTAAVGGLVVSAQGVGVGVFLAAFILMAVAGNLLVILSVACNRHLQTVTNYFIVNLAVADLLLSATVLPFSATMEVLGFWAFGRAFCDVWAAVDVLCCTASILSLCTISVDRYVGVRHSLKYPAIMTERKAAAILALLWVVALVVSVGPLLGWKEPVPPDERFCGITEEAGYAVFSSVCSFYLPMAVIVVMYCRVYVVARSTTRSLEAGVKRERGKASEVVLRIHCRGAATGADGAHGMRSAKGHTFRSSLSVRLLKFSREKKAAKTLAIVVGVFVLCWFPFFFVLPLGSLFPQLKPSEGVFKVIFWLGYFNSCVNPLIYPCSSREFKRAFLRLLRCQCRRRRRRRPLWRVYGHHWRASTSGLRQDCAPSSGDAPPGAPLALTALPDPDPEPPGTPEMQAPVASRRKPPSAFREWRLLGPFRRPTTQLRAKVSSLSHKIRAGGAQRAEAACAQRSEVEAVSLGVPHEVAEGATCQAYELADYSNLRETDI
The note with it: Patent Reference 3 and Non-patent Reference 5; cited from earlier work.

[2] abbreviates: Overall (all patients), average change.
Setting [3] is: patients with pre-administration total score of "Urination within 2 hours" and "Urgency" less than 6, average change before/after administration.
Where [4] appears, read: pre-administration score 6 or more, average change.
[5] abbreviates: pre-administration score less than 6, average change.

Regarding `C[C@H](Cc1cc2c(c(C(N)=O)c1)N(CCCO)CC2)NCCOc1ccccc1OCC(F)(F)F` [Silodosin, (−)-1-(3-hydroxypropyl)-5-((2R)-2-{[2-({2-[(2,2,2-trifluoroethyl)-oxy]phenyl}oxy)ethyl]amino}propyl)2,3-dihydro-1H-indole-7-carboxamide], the “I-PSS (irritative symptom) Changes” value in experiment [1] (setting [2]) was −2.5; in experiment [1] (setting [4]), −4.3; in experiment [1] (setting [5]), −1.6. Besides, the “I-PSS (obstructive symptom) Changes” value is −5.8 in experiment [1] (setting [2]), −7.1 in experiment [1] (setting [4]) and −5.2 in experiment [1] (setting [5]). Also, the “Total I-PSS Changes” value was −8.3 in experiment [1] (setting [2]), −6.8 in experiment [1] (setting [3]) and −11.3 in experiment [1] (setting [4]). Further, the “Effect on I-PSS irritative symptom score in patients showing storage disorders (in words)” value in experiment [1] (particularly patients with 6 or more total score of "Urination within 2 hours" and "Urgency" at pre-administration) is “has the effect to improve I-PSS irritative symptom score”. In addition, the “Action upon α1A-AR subtype (in words)” value on α1A-AR subtype is on record as “selectively acts”. For the same compound, the “Inverse agonist activity (in words)” value at α1A-AR subtype was “does not show inverse agonist activity”. The “Action upon α1B-AR subtype (in words)” value at α1B-AR subtype is reported as “hardly acts”. For the same compound, the “Action upon α1D-AR subtype (in words)” value at α1D-AR subtype is given as “hardly acts”.

For `CCOc1ccccc1OCCN[C@H](C)Cc1ccc(OC)c(S(N)(=O)=O)c1` [Tamsulosin, tamsulosin hydrochloride, reference compound], the “I-PSS (irritative symptom) Changes” value in experiment [1] (setting [2]) is on record as −2.1; in experiment [1] (setting [4]) it was −3.9; in experiment [1] (setting [5]), −1.3. In addition, the entries for the “I-PSS (obstructive symptom) Changes” value in experiment [1] (setting [2]), in experiment [1] (setting [4]) and in experiment [1] (setting [5]) were −4.8, −5.2 and −4.6, respectively. Moreover, the figures for the “Total I-PSS Changes” value in experiment [1] (setting [2]), in experiment [1] (setting [3]) and in experiment [1] (setting [4]) were −6.8, −5.9 and −9.1, respectively.

Source of the values: patent US20100137399A1, “PREVENTIVE AND/OR THERAPEUTIC AGENT FOR URINE COLLECTION DISORDER ACCOMPANYING LOWER URINARY TRACT OBSTRUCTION” (KISSEI PHARMACEUTICAL CO., LTD., priority 2004, published 2010).
